In ChEMBL document CHEMBL1201862, “PubChem BioAssay data set” (2004):
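Test compounds were applied to cells in 96-well plates for 48 hours at 5 doses. GI50 is the concentration that inhibits growth by half.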 Activity calls are given as the source filed them. No stated cut-off is given here; in the data, active = GI50 up to about 1.1 µM and inactive = higher.

What was measured:
Assay in all cases: NCI-60 cell line screen, 48 h
CCRF-CEM = system: CCRF-CEM
KM12 = system: KM12
SK-MEL-28 = system: SK-MEL-28
SNB-75 = system: SNB-75
SK-MEL-5 = system: SK-MEL-5
UO-31 = system: UO-31
786-0 = system: 786-0
TK-10 = system: TK-10
A549 = system: A549
SN12C = system: SN12C
UACC-62 = system: UACC-62
OVCAR-5 = system: OVCAR-5
SW-620 = system: SW-620
SF-295 = system: SF-295
MDA-N = system: MDA-N
MCF7 = system: MCF7
HCC 2998 = system: HCC 2998
DU-145 = system: DU-145
PC-3 = system: PC-3
HOP-62 = system: HOP-62
OVCAR-4 = system: OVCAR-4
SK-OV-3 = system: SK-OV-3
MDA-MB-231 = system: MDA-MB-231
T47D = system: T47D
HOP-92 = system: HOP-92
SK-MEL-2 = system: SK-MEL-2
SNB-19 = system: SNB-19
Hs-578T = system: Hs-578T
K562 = system: K562
HCT-116 = system: HCT-116
A498 = system: A498
MDA-MB-435 = system: MDA-MB-435
U-251 = system: U-251
M14 = system: M14
EKVX = system: EKVX
HT-29 = system: HT-29
NCI-H23 = system: NCI-H23
MOLT-4 = system: MOLT-4
NCI-H460 = system: NCI-H460
CAKI-1 = system: CAKI-1
UACC-257 = system: UACC-257
COLO 205 = system: COLO 205
OVCAR-8 = system: OVCAR-8
OVCAR-3 = system: OVCAR-3
LOX IMVI = system: LOX IMVI
IGROV-1 = system: IGROV-1
HL-60 = system: HL-60
SF-539 = system: SF-539
Malme-3M = system: Malme-3M
NCI/ADR-RES = system: NCI/ADR-RES
ACHN = system: ACHN
SR = system: SR
BT-549 = system: BT-549
HCT-15 = system: HCT-15
NCI-H226 = system: NCI-H226

## COc1cc2c(cc1OC)CN1CCc3ccccc3CC1C2 (stereo not given)
CCRF-CEM
  GI50: 36.9 µM (inactive)
KM12
  GI50: 33.1 µM (inactive)
SK-MEL-28
  GI50: 63.1 µM (inactive)
SNB-75
  GI50: 29 µM (inactive)
SK-MEL-5
  GI50: 27.1 µM (inactive)
UO-31
  GI50: 22.9 µM (inactive)
786-0
  GI50: 36.3 µM (inactive)
TK-10
  GI50: 13.7 µM (inactive)
A549
  GI50: 49.7 µM (inactive)
SN12C
  GI50: 40.7 µM (inactive)
UACC-62
  GI50: 23.6 µM (inactive)
OVCAR-5
  GI50: > 100 µM (inactive)
SW-620
  GI50: 37.8 µM (inactive)
SF-295
  GI50: 34.6 µM (inactive)
MDA-N
  GI50: 44.1 µM (inactive)
MCF7
  GI50: 25.6 µM (inactive)
HCC 2998
  GI50: 28.8 µM (inactive)
DU-145
  GI50: 37.6 µM (inactive)
PC-3
  GI50: 41.7 µM (inactive)
HOP-62
  GI50: 65.8 µM (inactive)
OVCAR-4
  GI50: 16.1 µM (inactive)
SK-OV-3
  GI50: 53.5 µM (inactive)
MDA-MB-231
  GI50: > 100 µM (inactive)
T47D
  GI50: 22.5 µM (inactive)
HOP-92
  GI50: 12.5 µM (inactive)
SK-MEL-2
  GI50: 34.3 µM (inactive)
SNB-19
  GI50: 52 µM (inactive)
Hs-578T
  GI50: > 100 µM (inactive)
K562
  GI50: 32.9 µM (inactive)
HCT-116
  GI50: 23.8 µM (inactive)
A498
  GI50: 43.3 µM (inactive)
MDA-MB-435
  GI50: 86.5 µM (inactive)
U-251
  GI50: 93.1 µM (inactive)
M14
  GI50: 30.1 µM (inactive)
EKVX
  GI50: 47.3 µM (inactive)
HT-29
  GI50: 12.6 µM (inactive)
NCI-H23
  GI50: 31.9 µM (inactive)
MOLT-4
  GI50: 28.8 µM (inactive)
NCI-H460
  GI50: 26.3 µM (inactive)
CAKI-1
  GI50: 42.4 µM (inactive)
UACC-257
  GI50: 51.4 µM (inactive)
COLO 205
  GI50: 25.1 µM (inactive)
OVCAR-8
  GI50: 44.1 µM (inactive)
OVCAR-3
  GI50: 97.5 µM (inactive)
LOX IMVI
  GI50: 39 µM (inactive)
IGROV-1
  GI50: 17.5 µM (inactive)
HL-60
  GI50: 27.2 µM (inactive)
SF-539
  GI50: 34.4 µM (inactive)
Malme-3M
  GI50: 25.8 µM (inactive)
NCI/ADR-RES
  GI50: 54.7 µM (inactive)
ACHN
  GI50: 22.6 µM (inactive)
SR
  GI50: 0.208 µM (active)
BT-549
  GI50: 31.3 µM (inactive)
HCT-15
  GI50: 39.4 µM
NCI-H226
  GI50: 42.1 µM (inactive)
